PMC3332521 (Scientific Reports, 2012)

Columns and labels:
Nfo = target: T1, Nfo (Pseudomonas putida, UniProt F8G0M2); test: coupled formate dehydrogenase assay, NADH at […] nm; type: biochemical; settings: 50 mM Tris-HCl pH 8.0, 20°C, NAD
T1 sequence (F8G0M2 1-255): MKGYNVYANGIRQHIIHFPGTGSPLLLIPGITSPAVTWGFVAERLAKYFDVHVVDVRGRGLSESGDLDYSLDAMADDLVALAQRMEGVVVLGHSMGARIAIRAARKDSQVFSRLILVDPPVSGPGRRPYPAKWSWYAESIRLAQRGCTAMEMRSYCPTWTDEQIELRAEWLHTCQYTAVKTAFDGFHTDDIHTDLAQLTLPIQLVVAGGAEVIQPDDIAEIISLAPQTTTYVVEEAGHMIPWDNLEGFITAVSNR

Ami = target: T2, Ami (Pseudomonas putida, UniProt F8G0M0); test: coupled glutamate dehydrogenase assay, NADPH at […] nm; type: biochemical; settings: 50 mM Tris-HCl, 1 mM EDTA, 20°C, alpha-ketoglutarate
T2 sequence (F8G0M0 1-208): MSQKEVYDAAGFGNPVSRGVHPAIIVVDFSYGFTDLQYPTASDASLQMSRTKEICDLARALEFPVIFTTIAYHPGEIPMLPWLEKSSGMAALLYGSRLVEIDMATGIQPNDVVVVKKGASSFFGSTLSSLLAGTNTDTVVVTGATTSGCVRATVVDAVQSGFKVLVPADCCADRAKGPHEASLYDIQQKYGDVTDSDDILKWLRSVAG

Iso = target: T3, Iso (Pseudomonas putida, UniProt F8G0M3); test: spectrophotometric, maleate consumption at […] nm; type: biochemical; settings: read-out: apparent Km; 50 mM Tris-HCl pH 8.4, 30°C, 1-thioglycerol
T3 sequence (F8G0M3 1-252): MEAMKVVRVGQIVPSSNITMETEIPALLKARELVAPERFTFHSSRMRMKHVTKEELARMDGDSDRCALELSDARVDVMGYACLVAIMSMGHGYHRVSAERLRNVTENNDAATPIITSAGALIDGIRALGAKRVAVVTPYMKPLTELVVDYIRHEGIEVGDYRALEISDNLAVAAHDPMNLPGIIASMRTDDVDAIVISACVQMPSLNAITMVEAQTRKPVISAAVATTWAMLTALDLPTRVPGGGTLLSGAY

purified protein = substrate: Oc1ccc(O)nc1; test: purified protein; type: biochemical, Pseudomonas putida; settings: 0.025 mM Fe2+, 18.2 mM Tris-HCl pH 8.0, 20°C

## O=CNC(=O)/C=C\C(=O)O [NFM]
Nfo
  coupled formate dehydrogenase assay, NADH at 340 nm: Nfo activity was measured through its production of formate by a coupled reaction

## NC(=O)/C=C\C(=O)O [maleamic acid]
Ami
  coupled glutamate dehydrogenase assay, NADPH at 340 nm: Purified Ami (Fig. 3A) transformed maleamic acid to maleic acid

## O=C(O)/C=C\C(=O)O [maleate]
Iso
  Km: 689 µM

B1: Hpo (Pseudomonas putida S16) (protein)
chain: MDHVSFTEICLRQLKMSGVHEGERLIVLTQGHERLAYADAFMAAGQRLGAEMYHMRLPSPLPSNGWAVGVTGLADLPGAVEALKNCDMLIDCVFLLFSAEQFEIQAAGTRILTAVEPPELLARMLPFPELREKVSIAAELVENAKDMRITSPHGTDITYKLNTYPTIAEYACTDTPGRWDHWPSGFVFTGGDDDGVDGTIVVAPGDVLLPQNLMVREPITYTIEKGWIVDIRGGLEAQIVNSYMDSFNDPRGKGMSHVGWGMNPHAKWHNFVPGQFTGGMGMELRSFYGNVMFSTGPNNELGGSNDTACHLDIPMRNCSLFLDDTPVVIDGDIVVKEIQLVQR
Purified protein
  Km: 0.168 µM
